{"source": "paper PMC6968712", "about": "“SPA: a peptide antagonist that acts as a cell-penetrating peptide for drug delivery” (Drug Delivery, 2019)", "key": {"[1]": {"test": "Enzymatic stability in serum", "assay_type": "in vitro ADME", "conditions": "15 μL 10 mM peptide in 285 μL 100% mice serum, 37 °C, 0–3 h, RP-HPLC, triplicate", "protocol": "(§1) The enzymatic stability of SPA toward trypsin and mice serum was determined following a procedure reported in our previous study (Song et al., [2013]). A portion of 15 μL peptide stock solution (10 mM) was added to 285 μL trypsin solution (10 μg/mL) or 100% serum. Incubations were carried out at 37 °C for 0, 0.5, 1, 2 and 3 h in triplicate. A portion of 40 μL aliquots were diluted with 80 μL water/acetonitrile (60:40 v/v) containing 1% TFA and analyzed by RP-HPLC (Waters). The peptides were eluted using a liner gradient of 5–95% acetonitrile in 0.1% trifluoroacetic acid at a flow rate of 1 mL/min within 30 min on a C18 column (Waters XBridge Columns, 10 μM, 4.6*250 mm). The remaining full-length peptide concentration was normalized with respect to the initial concentration."}, "CHO cells [2]": {"test_system": "CHO cells", "test": "MTT antiproliferative assay of SPA-CPT conjugate", "assay_type": "cell-based", "conditions": "treated 1 h, washed, cultured 72 h", "experimental": "CHO, MDA-MB-231and U251 cells were seeded at 5 × 10^3 cells/well in 96-well plates 24 h before treatment, respectively. […] After washing with medium to remove the remaining agents, the cells were cultured for 72 h and the antiproliferative effects of the relevant agents were determined by the MTT assay."}, "CHO cells [3]": {"test_system": "CHO cells", "test": "LDH leakage assay", "assay_type": "cell-based", "conditions": "1 h, 100% = 0.2% Triton X-100", "protocol": "The LDH leakage was measured using the Cytotoxicity Detection Kit (Roche). CHO cells were seeded at 1 × 10^4 cells/well in 96-well plate 24 h before treatment. After treatment with SPA at various concentrations for 1 h, 40 μL medium was transferred to a 96-well plate and incubated for 15 min with 40 μL reaction mixture, followed by 20 μL stop solution. […] was measured using microplate reader (Thermo scientific) at 490 nm. Untreated cells were defined as no leakage and 100% leakage was defined as total LDH release by lysing cells in 0.2% Triton X-100."}, "Erythrocytes": {"test_system": "Erythrocytes", "test": "Hemolysis assay", "assay_type": "cell-based", "conditions": "mice erythrocytes, even at 200 μM, 1 h, 37 °C", "protocol": "Erythrocytes were obtained from freshly collected mice blood and resuspended in PBS to 4% (V/V). After 100 μL the erythrocyte suspension being seeded in 96-well plate, the cells were incubated with 100 μL peptides solution at different concentrations for 1 h at 37 °C. The plates were centrifuged at 1000 g for 10 min and the released hemoglobin was determined using microplate reader (Thermo scientific) at 450 nm. PBS and 0.1% Triton X-100 were used as agents for 0 and 100% hemolysis, respectively."}, "trypsin": {"test_system": "trypsin", "test": "Enzymatic stability toward trypsin", "assay_type": "in vitro ADME", "conditions": "15 μL 10 mM peptide in 285 μL trypsin solution (10 μg/mL), 37 °C, after incubation for 360 min as printed, RP-HPLC, triplicate", "protocol": "as §1, with “Incubations were carried out at 37 °C for 0, 0.5, 1, 2 and 3 h in triplicate.” left out"}, "CHO cells [4]": {"test_system": "CHO cells", "test": "MTT cytotoxicity assay of SPA (24 h)", "assay_type": "cell-based", "conditions": "various concentrations", "protocol": "Cells were treated with SPA at various concentrations for 24 h. The cytotoxicity of SPA was determined by MTT assay. The absorbance was determined using microplate reader (Thermo scientific) at 570 nm."}, "CHO cells [5]": {"test_system": "CHO cells", "test": "Flow cytometry assay of cellular uptake", "assay_type": "cell-based", "conditions": "1 h", "protocol": "CHO cells were treated with 10 μM FITC labeled peptides for 1 h, and then the cells were harvested and finally resuspended in PBS after washing twice with PBS. The fluorescence of cells was analyzed on a FACS Caliber. To explore the uptake mechanism of SPA, CHO cells were preincubated at 4 °C and then treated with 10 μM FITC-labeled SPA at 4 °C or 37 °C for 1 h. In experiments with chloroquine, CHO cells were incubated with FITC-labeled SPA and 100 μM chloroquine at 37 °C for 1 h. In experiments with endocytosis inhibitor, cells were pretreated with 10 μg/mL chlorpromazine, 50 μM amiloride or 5 mM methyl-β-cyclodextrin at 37 °C for 0.5 h and then treated with 10 μM FITC-labeled SPA for 1 h. Cells were harvested and analyzed by a FACS Caliber (BD)."}, "[6]": {"test": "RP-HPLC retention time as measure of peptide hydrophobicity", "assay_type": "physicochemical", "conditions": "Table S1; chromatographic, C18 (Waters XBridge, 4.6*250 mm), linear gradient 5–95% acetonitrile in 0.1% trifluoroacetic acid within 30 min, 1 mL/min", "experimental": "Purity analysis was checked by analytical RP-HPLC (Waters), and the peptides were eluted using a liner gradient of 5–95% acetonitrile in 0.1% trifluoroacetic acid at a flow rate of 1 mL/min within 30 min on a C18 column (Waters XBridge Columns, 10 μM, 4.6*250 mm). The retention time of each peptide was determined when the peak was at its maximum height."}}, "note": "Where a SMILES comes first, the peptide text is derived from it. Where no end group is shown, it is not given here. [ ]: non-standard residue; d: D form."}
{"compound": "CC(C)C[C@H](NC(=O)[C@H](CC(C)C)NC(=O)[C@@H](Cc1c[nH]c2ccccc12)NC(=O)[C@H](Cc1ccccc1)NC(=O)[C@@H](Cc1c[nH]c2ccccc12)NC(=O)[C@H](CCC(N)=O)NC(=O)[C@@H](Cc1c[nH]c2ccccc12)NC(=O)[C@@H]1CCCN1C(=O)[C@H](CCCCN)NC(=O)[C@@H]1CCCN1C(=O)[C@H](N)CCCN=C(N)N)C(N)=O", "note": "[SPA, [D-Arg^1, D-Trp^5,7,9, Leu^11]Substance P] (H-[dR]PKP[dW]Q[dW]F[dW]LL-NH2)", "values": [{"measurement": "stability in serum (remaining full-length peptide)", "setting": "[1]", "value": "significantly greater stability in serum than L-SPA"}, {"measurement": "cytotoxicity / antiproliferative effect (MTT)", "setting": "CHO cells [2]", "value": "no notable cytotoxicity"}, {"measurement": "LDH leakage", "setting": "CHO cells [3]; 160 μM", "value": 35, "unit": "%"}, {"measurement": "hemolytic activity", "setting": "Erythrocytes", "value": "low hemolytic activity"}, {"measurement": "stability against trypsin (remaining full-length peptide)", "setting": "trypsin", "value": "not hydrolyzed"}, {"measurement": "cytotoxicity (MTT)", "setting": "CHO cells [4]", "value": "low cytotoxicity"}]}
{"compound": "CC[C@H](C)[C@H](NC(=O)CN)C(=O)NCC(=O)N[C@@H](C)C(=O)N[C@H](C(=O)N[C@@H](CC(C)C)C(=O)N[C@@H](CCCCN)C(=O)N[C@H](C(=O)N[C@@H](CC(C)C)C(=O)N[C@H](C(=O)N[C@H](C(=O)NCC(=O)N[C@@H](CC(C)C)C(=O)N1CCC[C@H]1C(=O)N[C@@H](C)C(=O)N[C@@H](CC(C)C)C(=O)N[C@H](C(=O)N[C@@H](CO)C(=O)N[C@@H](Cc1c[nH]c2ccccc12)C(=O)N[C@H](C(=O)N[C@@H](CCCCN)C(=O)N[C@@H](CCCNC(=N)N)C(=O)N[C@@H](CCCCN)C(=O)N[C@@H](CCCNC(=N)N)C(=O)N[C@@H](CCC(N)=O)C(=O)N[C@@H](CCC(N)=O)C(N)=O)[C@@H](C)CC)[C@@H](C)CC)[C@@H](C)O)[C@@H](C)O)C(C)C)C(C)C", "note": "[melittin, reference compound]", "values": [{"measurement": "LDH leakage", "setting": "CHO cells [3]; 50 μM (positive control)", "value": "~100", "unit": "%"}]}
{"compound": "FITC-AHX-YGRKKRRQRRR-NH2 [FITC-TAT, FITC-labeled cell-penetrating peptide TAT used as uptake comparator, reference compound]", "values": [{"measurement": "cellular uptake efficiency (mean fluorescence intensity)", "setting": "CHO cells [5]; 10 μM FITC labeled peptides, flow cytometry", "value": "cellular uptake efficiency of SPA was lower than that of TAT"}, {"measurement": "retention time", "setting": "[6]", "value": 16.0, "unit": "min"}]}
{"compound": "FITC-AHX-rPKPwQwFwLL-NH2 [FITC-SPA, SPA labeled with FITC at the N-terminus via an aminohexanoic acid spacer]", "values": [{"measurement": "mean fluorescence on cotreatment with chloroquine", "setting": "CHO cells [5]; 10 μM FITC-labeled SPA with 100 μM chloroquine, 37 °C", "value": "significantly increased"}, {"measurement": "retention time", "setting": "[6]", "value": 21.2, "unit": "min"}]}
{"compound": "RPKPWQWFWLL-NH2 [L-SPA]", "values": [{"measurement": "stability in serum (remaining full-length peptide)", "setting": "[1]", "value": "SPA exhibited significantly greater stability in serum than L-SPA"}, {"measurement": "stability against trypsin (remaining full-length peptide)", "setting": "trypsin", "value": "almost completely degraded"}]}
